In PubChem BioAssay (NCI):
Several values for one entry are separate records, joined by “and”; a condition that tells them apart may be missing. Equal entries are not always repeated.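 Grown in 96-well plates, cells were treated for 48 hours with each compound at five concentrations. Insufficient inhibition: endpoint recorded as highest concentration tested. The concentration for 50% growth inhibition is given as GI50. The concentration for full growth arrest is given as TGI.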

Columns and labels:
Assay in all cases: NCI tumour cell line growth inhibition, 48 h
786-0 renal = system: 786-0 renal
A549 NSCLC = system: A549 NSCLC
HCC-2998 colon = system: HCC-2998 colon
HCT-116 colon = system: HCT-116 colon
HCT-15 colon = system: HCT-15 colon
K-562 leukemia = system: K-562 leukemia
MOLT-4 leukemia = system: MOLT-4 leukemia
NCI-H226 lung = system: NCI-H226 lung
OVCAR-5 ovarian = system: OVCAR-5 ovarian
OVCAR-8 ovarian = system: OVCAR-8 ovarian
RPMI-8226 leukemia = system: RPMI-8226 leukemia
RXF 393 renal = system: RXF 393 renal
SF-539 CNS = system: SF-539 CNS
SN12C renal = system: SN12C renal
SW-620 colon = system: SW-620 colon

Compound | TGI (786-0 renal) | TGI (A549 NSCLC) [µM] | TGI (HCC-2998 colon) [µM] | TGI (HCT-116 colon) | TGI (HCT-15 colon) [µM] | TGI (K-562 leukemia) [µM] | TGI (MOLT-4 leukemia) [µM] | TGI (NCI-H226 lung) [µM] | TGI (OVCAR-5 ovarian) [µM] | TGI (OVCAR-8 ovarian) [µM] | TGI (RPMI-8226 leukemia) [µM] | TGI (RXF 393 renal) | TGI (SF-539 CNS) [µM] | TGI (SN12C renal) [µM] | TGI (SW-620 colon) [µM] | GI50 (HCT-116 colon) | GI50 (NCI-H226 lung) | GI50 (OVCAR-5 ovarian) | GI50 (SF-539 CNS)
COC(=O)C1C(=O)C=CN([C@H](C)c2ccccc2)[C@@H]1Cc1ccc(OC)c(OCc2ccccc2)c1I (some centres not stated) | 34.4 µM | 71.9 | 32.5 | 24.3 µM | 27 | > 100 | > 100 | 32.7 | 92.7 | > 100 | > 100 | 25.2 µM | 36.4 | 28.8 | > 100 |  |  |  | 
Cc1cccc2c(N)c3cccc(C(=O)NCC[N+](C)(C)Cc4c([N+](=O)[O-])ncn4C)c3nc12 | 37.2 µM | > 47.9 | > 95.7 | > 90.2 µM | > 100 | > 100 | > 100 | > 100 | > 100 | > 95.5 | > 100 | > 100 µM | 36.9 | > 100 | > 100 |  |  |  | 
O=C1CCCC2(c3ccccc3)Nc3ccccc3N12 (configuration not stated) | > 100 µM | > 100 | > 100 | > 100 µM | > 100 | > 100 | > 100 | > 100 | > 100 | > 100 | > 100 | > 100 µM | > 100 | > 100 | > 100 |  |  |  | 
C=C(CC[C@@H](C)[C@H]1CC[C@@]2(C)C3=C(CC[C@]12C)[C@@]1(C)CC[C@H](O)[C@@H](C)C1CC3)C(C)C (some centres not stated) | 2.07 µM | 2.32 | 2.7 | 2.48 µM | 2.5 | 1.18 | 2.49 | 5.01 | 2.67 | 3.53 |  | 2.54 µM | 2.71 | 2.72 | 3.44 |  |  |  | 
Cc1ccc(C)c(COCCOCn2ccc(N)nc2=O)c1 | > 100 µM | > 100 | > 100 | > 100 µM | > 100 | > 100 | > 100 | > 100 | > 100 | > 100 |  | > 100 µM | > 100 | > 100 | > 100 |  |  |  | 
CC1=CC(=O)N(n2c(Cc3ccccc3)n[nH]c2=O)C1=O | > 100 µM | > 100 | > 100 | > 100 µM | > 100 | > 100 | > 100 | > 100 | > 100 | > 100 | > 100 | > 100 µM | > 100 | > 100 | > 100 |  |  |  | 
CNC(=O)N1CN(c2ccccc2)C2(CCN(CCCC3(c4ccc(F)cc4)OCCO3)CC2)C1=O | > 100 µM | > 100 | > 100 | > 100 µM | > 100 | > 100 | > 100 | > 100 | > 100 |  | > 100 | > 100 µM | > 100 | > 100 | > 100 |  |  |  | 
CC(=O)N[C@@H](Cc1ccc(O)cn1)C(=O)NCc1cccc(Cl)c1 | > 100 µM | > 100 | > 100 | > 100 µM | > 100 | > 100 | > 100 | > 100 | > 100 |  | > 100 | > 100 µM | > 100 | > 100 | > 100 |  |  |  | 
CC12CCC([C@H](C(O)C3CCCCC3)C1=O)C2(C)C (some centres not stated) | > 100 µM |  | > 100 | > 100 µM | > 100 | > 100 | > 100 | > 100 | > 100 | > 100 | > 100 | > 100 µM | > 100 | > 100 | > 100 |  |  |  | 
CC(C)(C)c1ccc(-c2nc3ccc(Cl)cc3c(=O)o2)cc1 | > 100 µM | 53 | 27.6 | 40.5 µM | 49.5 | 67.8 | 36.3 |  | 80.9 | 49.3 | 54.1 | 87.1 µM | 35.8 | > 100 | > 100 |  |  |  | 
COc1cc(/C=C2\N=C(c3ccccc3)N(c3nc4c(OC)ccc(OC)c4s3)C2=O)ccc1O | > 100 µM | > 100 | > 100 | > 100 µM | > 100 | 42.4 | 39.5 |  | > 100 | > 100 | 62.8 | > 100 µM | > 100 | > 100 | > 100 |  |  |  | 
O=C1O/C(=C(/Cl)c2cccc3ccccc23)c2ccccc21 | > 100 µM | > 100 | > 100 | > 100 µM | > 100 | > 100 | > 100 |  | > 100 | > 100 | > 100 | > 100 µM | > 100 | > 100 | > 100 |  |  |  | 
O=C(O)[C@@H]1CSCN1C(=O)[C@@H]1CCC(=S)N1 | > 100 µM | > 100 | > 100 |  | > 100 | > 100 | > 100 | > 100 | > 100 | > 100 | > 100 | > 100 µM | > 100 | > 100 | > 100 |  |  |  | 
COc1cc(OC)c2c(=O)c(OC)c(-c3ccc4c(c3)OCO4)oc2c1 | 79.3 µM | > 100 | > 100 | > 100 µM | > 100 | > 100 | > 100 | > 100 | > 100 | > 100 |  | 72.6 µM | 44.1 | > 100 | > 100 |  |  |  | 
CCCCCCCCCCN(CCCCCCCCCC)C(=O)COc1c2cc(C(C)(C)C)cc1Cc1cc(C(C)(C)C)cc(c1OCC(=O)N(CCCCCCCCCC)CCCCCCCCCC)Cc1cc(C(C)(C)C)cc(c1OCC(=O)N(CCCCCCCCCC)CCCCCCCCCC)Cc1cc(C(C)(C)C)cc(c1OCC(=O)N(CCCCCCCCCC)CCCCCCCCCC)C2 | 23.3 µM | 30.4 | 22.3 | 5.6 µM | 21.7 | 4.87 | 6.34 | 36.3 | 26.1 | 16.6 |  | 22.3 µM | 13.7 | 26.2 | 14.2 |  |  |  | 
O=C1N[C@@H](c2c[nH]c3cc(Br)ccc23)C(=O)N[C@H]1c1c[nH]c2cc(Br)ccc12 | > 100 µM | > 100 | > 100 | > 100 µM | > 100 | > 100 |  | > 100 | > 100 | > 100 | > 100 | > 100 µM | > 100 | > 100 | > 100 |  |  |  | 
C=C1CC[C@H](O)C(C)(C)[C@@H]1CC/C(C)=C/CC/C=C(\C)CC/C=C(\C)CCC=C(C)C | > 100 µM | > 100 | > 100 | > 100 µM | > 100 | > 100 | > 100 | > 100 | > 100 | > 100 |  | 51.9 µM | > 100 | > 100 | > 100 |  |  |  | 
COc1ccc(N2C(=O)c3cc(C)cnc3S2(=O)=O)cc1 | > 100 µM | > 100 | > 100 | > 100 µM | > 100 | > 100 | > 100 | > 100 | > 100 | > 100 | > 100 | > 100 µM |  | > 100 | > 100 |  |  |  | 
CCc1c(C)c(C#N)c(=S)n(C2OC(COC(C)=O)C(OC(C)=O)C(OC(C)=O)C2OC(C)=O)c1C (configuration not stated) | > 100 µM and 41.5 µM | > 100 | > 100 | > 100 µM and 45.5 µM | > 100 | > 100 | > 100 | > 100 | > 100 | > 100 |  | > 100 µM and 29.1 µM | > 100 | > 100 | > 100 | > 100 µM and 21.7 µM | > 100 µM and 38.2 µM | > 100 µM and 45.9 µM | > 100 µM and 31.4 µM
COC(=O)C1=C(C(=O)OC)c2cc(OC)ccc2C(C(=S)N(C)C)S1 (configuration not stated) | > 100 µM | > 100 | > 100 | > 100 µM | > 100 | > 100 | > 100 | > 100 | > 100 | > 100 | > 100 | > 100 µM |  | > 100 | > 100 |  |  |  | 
O=c1[nH]c(Nc2nc3ccccc3[nH]2)nc2c1CCC2 | > 100 µM | > 100 | > 100 | > 100 µM | > 100 | > 100 |  | > 100 | > 100 | > 100 |  | > 100 µM | > 100 | > 100 | > 100 |  |  |  | 
Cc1ccccc1N=Nc1ccc(N/N=C2/CCCNC2=O)c(C)c1 | > 100 µM | > 100 | > 100 | > 100 µM | > 100 | > 100 | > 100 | > 100 | > 100 |  | > 100 | > 100 µM |  | > 100 | > 100 |  |  |  | 
COC/C=C\[C@]1(O)CCCC[C@@H]1CC(OC)OC | > 100 µM | > 100 | > 100 |  | > 100 | > 100 | 91.2 | > 100 | > 100 | > 100 | > 100 | > 100 µM | > 100 |  | > 100 |  |  |  | 
